Experimental data reported in patent publication US20050148633A1 (priority 2003, published 2005).

What follows are compounds tested on IL-2 production (assay: Inhibition of IL-2 production in PHA-activated Jurkat cells (ELISA)). Conditions: Homo sapiens, PHA 2.5 μg/mL, 20 hours, value bins.
Assay type: cell-based
Protocol: Jurkat cells were placed in a 96 well plate (0.5 million cells per well in 1% FBS medium) then test compounds of this invention were added at different concentrations. After 10 minutes, the cells were activated with PHA (final concentration 2.5 μg/mL) and incubated for 20 hours at 37° C. under CO2. The final volume was 200 μL. Following incubation, the cells were centrifuged and the supernatants collected and stored at −70° C. prior to assaying for IL-2 production. A commercial ELISA kit (IL-2 Eli-pair, Diaclone Research, Besancon, France) was used to detect production of IL-2, from which dose response curves were obtained. The IC50 value was calculated as the concentration at which 50% of maximum IL-2 production after stimulation was inhibited versus a non-stimulation control.

Question: How did the IC50 turn out when Cc1c(F)cccc1C(=O)Nc1ccc(-c2cc(C(F)(F)F)ccc2C(F)(F)F)cc1 [Compound 55, N-(2′,5′-bis-trifluoromethyl-biphenyl-4-yl)-2-methyl-3-fluorobenzamide] was run?
Answer: Its IC50 is under 100 nM.

Question: For COc1cccc(C(=O)Nc2ccc(-c3cc(C(F)(F)F)ccc3C(F)(F)F)cc2)c1C [Compound 56, N-(2′,5′-bis-trifluoromethyl-biphenyl-4-yl)-2-methyl-3-methoxybenzamide], which IC50 is on record?
Answer: Its IC50 is under 100 nM.

Question: For COc1ccc(OC)c(-c2ccc(NC(=O)c3snnc3C)cc2)c1 [Compound 58, 4-methyl-[1,2,3]-thiadiazole-5-carboxylic acid (2′,5′-dimethoxy-biphenyl-4-yl)-amide], which IC50 is on record?
Answer: Its IC50 is under 100 nM.

Question: COc1ccc(OC)c(-c2ccc(NC(=O)c3ccccc3C)cc2)c1 [Compound 59, N-(2′,5′-dimethoxy-biphenyl-4-yl)-2-methylbenzamide] was tested. Which IC50 did it give?
Answer: Its IC50 is under 100 nM.

Question: For Cc1ncccc1C(=O)Nc1ccc(-c2cc(C(F)(F)F)ccc2C(F)(F)F)cc1 [Compound 60, 2-methyl-pyridine-3-carboxylic acid (2′,5′-bis-trifluoromethyl-biphenyl-4-yl)-amide], which IC50 is on record?
Answer: The IC50 was 100 to 500 nM.

Question: How did the IC50 turn out when Cn1cncc1C(=O)Nc1ccc(-c2cc(C(F)(F)F)ccc2C(F)(F)F)cc1 [Compound 62, 1-methyl-1H-imidazole-5-carboxylic acid (2′,5′-bis-trifluoromethyl-biphenyl-4-yl)-amide] was run?
Answer: Its IC50 is 100 to 500 nM.

Question: Which IC50 does the source give for COc1ccc(OC)c(-c2ccc(NC(=O)c3ccncc3C)cc2)c1 [Compound 63, 3-methyl-pyridine-4-carboxylic acid (2′,5′-dimethoxy-biphenyl-4-yl)-amide] here?
Answer: Its IC50 is under 100 nM.

Question: How did the IC50 turn out when Cc1cnccc1C(=O)Nc1ccc(-c2cc(C(F)(F)F)ccc2C(F)(F)F)cc1 [Compound 64, 3-methyl-pyridine-4-carboxylic acid (2′,5′-bis-trifluoromethyl-biphenyl-4-yl)-amide] was run?
Answer: Its IC50 is under 100 nM.

Question: COc1ccc(Cl)cc1-c1ccc(NC(=O)c2ccncc2C)cc1 [Compound 65, 3-methyl-pyridine-4-carboxylic acid (2′-methoxy-5′-chlorobiphenyl-4-yl)-amide] was tested. Which IC50 did it give?
Answer: The IC50 was under 100 nM.

Question: COc1ccc(Cl)cc1-c1ccc(NC(=O)c2ccncc2F)cc1 [Compound 67, 3-fluoro-pyridine-4-carboxylic acid (2′-methoxy-5′-chlorobiphenyl-4-yl)-amide] was tested. Which IC50 did it give?
Answer: Its IC50 is under 100 nM.

Question: With O=C(Nc1ccc(-c2cc(C(F)(F)F)ccc2C(F)(F)F)cc1)c1ccncc1F [Compound 68, 3-fluoro-pyridine-4-carboxylic acid (2′,5′-bis-trifluoromethylbiphenyl-4-yl)-amide] as the compound, how does the IC50 read?
Answer: Its IC50 is under 100 nM.

Question: How did the IC50 turn out when COc1ccc(C)cc1-c1ccc(NC(=O)c2ccncc2C)cc1 [Compound 69, 3-methyl-pyridine-4-carboxylic acid (2′-methoxy-5′-methylbiphenyl-4-yl)-amide] was run?
Answer: Its IC50 is under 100 nM.

Question: Which IC50 does the source give for Cc1ccc(C)c(-c2ccc(NC(=O)c3ccncc3C)cc2)c1 [Compound 70, 3-methyl-pyridine-4-carboxylic acid (2′,5′-dimethylbiphenyl-4-yl)-amide] here?
Answer: The IC50 was 100 to 500 nM.

Question: With COc1ccc(C(C)=O)cc1-c1ccc(NC(=O)c2snnc2C)cc1 [Compound 71, 4-methyl-[1,2,3]-thiadiazole-5-carboxylic acid (2′-methoxy-5′-acetylbiphenyl-4-yl)-amide] as the compound, how does the IC50 read?
Answer: The IC50 was 100 to 500 nM.

Question: For O=C(Nc1ccc(-c2cc(Cl)ccc2OC(F)F)cc1)c1ccncc1F [Compound 72, 3-fluoro-pyridine-4-carboxylic acid (2′-difluoromethoxy-5′-chlorobiphenyl-4-yl)-amide], which IC50 is on record?
Answer: Its IC50 is under 100 nM.

Question: With Cc1nnsc1C(=O)Nc1ccc(-c2cc(OC(F)(F)F)ccc2N(C)C)cc1 [Compound 73, 4-methyl-[1,2,3]-thiadiazole-5-carboxylic acid {2′-(N,N-dimethylamino)-5′-trifluoromethoxybiphenyl-4-yl}-amide] as the compound, how does the IC50 read?
Answer: Its IC50 is under 100 nM.

Question: How did the IC50 turn out when Cc1cnccc1C(=O)Nc1ccc(-c2cc(C(F)(F)F)ccc2Cl)cc1 [Compound 74, 3-methyl-pyridine-4-carboxylic acid (2′-chloro-5′-trifluoromethylbiphenyl-4-yl)-amide] was run?
Answer: The IC50 was under 100 nM.

Question: How did the IC50 turn out when CCc1ccccc1-c1ccc(NC(=O)c2ccncc2C)cc1 [Compound 76, 3-methyl-pyridine-4-carboxylic acid (2′-ethyl-biphenyl-4-yl)-amide] was run?
Answer: Its IC50 is under 100 nM.

Question: For Cc1cnccc1C(=O)Nc1ccc(-c2ccccc2C(C)C)cc1 [Compound 77, 3-methyl-pyridine-4-carboxylic acid (2′-isopropyl-biphenyl-4-yl)-amide], which IC50 is on record?
Answer: The IC50 was 100 to 500 nM.

Question: Which IC50 does the source give for CCc1ccc(CC)c(-c2ccc(NC(=O)c3ccncc3C)cc2)c1 [Compound 79, 3-methyl-pyridine-4-carboxylic acid (2′,5′-diethylbiphenyl-4-yl)-amide] here?
Answer: The IC50 was under 100 nM.

Question: For COc1ccc(N(C)C)c(-c2ccc(NC(=O)c3ccncc3C)cc2)c1 [Compound 80, 3-methyl-pyridine-4-carboxylic acid {2′-(N,N-dimethylamino)-5′-methoxybiphenyl-4-yl}-amide], which IC50 is on record?
Answer: Its IC50 is 100 to 500 nM.

Question: How did the IC50 turn out when CCOc1ccc(Cl)cc1-c1ccc(NC(=O)c2ccncc2C)cc1 [Compound 82, 3-methyl-pyridine-4-carboxylic acid (2′-ethoxy-5′-chlorobiphenyl-4-yl)-amide] was run?
Answer: The IC50 was under 100 nM.

Question: With COc1ccc(Cl)cc1-c1ccc(NC(=O)c2cc(F)c(F)cc2F)cc1 [Compound 84, N-(2′-methoxy-5′-chloro-biphenyl-4-yl)-2,4,5-trifluorobenzamide] as the compound, how does the IC50 read?
Answer: Its IC50 is under 100 nM.

Question: Which IC50 does the source give for O=C(Nc1ccc(-c2cc(C(F)(F)F)ccc2C(F)(F)F)cc1)c1c(F)cccc1F [Compound 85, N-(2′,5′-bis-trifluoromethylbiphenyl-4-yl)-2,6-difluorobenzamide] here?
Answer: Its IC50 is under 100 nM.

Question: How did the IC50 turn out when O=C(Nc1ccc(-c2cc(C(F)(F)F)ccc2Cl)cc1)c1c(F)cccc1F [Compound 86, N-(2′-chloro-5′-trifluoromethylbiphenyl-4-yl)-2,6-difluorobenzamide] was run?
Answer: The IC50 was under 100 nM.

Question: For Cc1ccc(C)c(-c2ccc(NC(=O)c3c(F)cccc3F)cc2)c1 [Compound 87, N-(2′,5′-dimethylbiphenyl-4-yl)-2,6-difluorobenzamide], which IC50 is on record?
Answer: The IC50 was under 100 nM.

Question: O=C(Nc1ccc(-c2cc(Cl)ccc2Cl)cc1)c1c(F)cccc1F [Compound 88, N-(2′,5′-dichlorobiphenyl-4-yl)-2,6-difluorobenzamide] was tested. Which IC50 did it give?
Answer: The IC50 was under 100 nM.

Question: Which IC50 does the source give for O=C(Nc1ccc(-c2c(C(F)(F)F)cc3ccccn23)cc1)c1cc(F)ccc1F [Compound 90, 2,5-Difluoro-N-[4-(2-trifluoromethyl-indolizin-3-yl)-phenyl]-benzamide] here?
Answer: Its IC50 is 100 to 500 nM.

Question: How did the IC50 turn out when Cc1cc2ccccn2c1-c1ccc(NC(=O)c2snnc2C)cc1 [Compound 91, 4-methyl-N-[4-(2-methyl-indolizin-3-yl)-phenyl]-[1,2,3]thiadiazole 5-carboxylic acid amide] was run?
Answer: Its IC50 is 100 to 500 nM.

Question: COc1ccc(OC)c(-c2ccc(NC(=O)c3c(F)cccc3F)cc2)c1 [Compound 125, N-(2′,5′-dimethoxy-biphenyl-4-yl)-2,6-difluoro-benzamide] was tested. Which IC50 did it give?
Answer: Its IC50 is under 100 nM.

Question: For Cc1ccc(C(F)(F)F)c(-c2ccc(NC(=O)c3c(F)cccc3F)cc2)c1 [Compound 126, N-(2′-trifluoromethyl-5′-methyl-biphenyl-4-yl)-2,6-difluoro-benzamide], which IC50 is on record?
Answer: Its IC50 is under 100 nM.

Question: Which IC50 does the source give for Fc1cccc(F)c1CNc1ccc(-c2cc(C(F)(F)F)ccc2C(F)(F)F)cc1 [Compound 127, N-(2′,5′-bis-trifluoromethyl-biphenyl-4-yl)-2,6-difluoro-benzyl amine] here?
Answer: Its IC50 is under 100 nM.

Question: COc1ccc(Cl)cc1-c1ccc(NCc2c(F)cccc2F)cc1 [Compound 129, N-(2′-methoxy-5′-chloro-biphenyl-4-yl)-2,6-difluoro-benzyl amine] was tested. Which IC50 did it give?
Answer: The IC50 was under 100 nM.

Question: With CCN(CC)C(=O)Nc1ccc(-c2cc(C(F)(F)F)ccc2C(F)(F)F)cc1 [Compound 131, N′,N′-diethyl-N-(2′,5′-bis-trifluoromethylbiphenyl-4-yl) urea] as the compound, how does the IC50 read?
Answer: The IC50 was under 100 nM.

Same assay, conditions: Homo sapiens, PHA, bin 500 nM-1 μM

Question: With O=C(Nc1ccc(-c2cc(C(F)(F)F)ccc2C(F)(F)F)cc1)c1cccc2c1OCCO2 [Compound 61, 2,3-dihydro-benzo[1,4]dioxine-5-carboxylic acid (2′,5′-bis-trifluoromethyl-biphenyl-4-yl)-amide] as the compound, how does the IC50 read?
Answer: Its IC50 is 500 to 1000 nM.

Question: How did the IC50 turn out when CCN(CC)C(=O)Nc1ccc(-c2cc(C(F)(F)F)ccc2C(F)(F)F)cc1 [Compound 131, N′,N′-diethyl-N-(2′,5′-bis-trifluoromethylbiphenyl-4-yl) urea] was run?
Answer: The IC50 was 500 to 1000 nM.

Each compound was assayed on RBL cells (assay: Inhibition of degranulation in RBL cells). Conditions: Rattus norvegicus, anti-DNP IgE / anti-IgE, read-out: concentration at which 50% of degranulation is inhibited.
Assay type: cell-based
Protocol: Procedure: • The day before the assay was performed, RBL cells, that had been grown to confluence in a 96 well plate, were incubated at 37° C. for at least 2 hours. The medium was replaced in each well with 100 μL of fresh medium containing of anti-DNP IgE.
On the following day, the cells were washed once with PRS (2.6 mM glucose and 0.1% BSA) and 160 μL of PRS was added to each well. The test compound was addded to a well in a 20 μL solution at 10× of the desired concentration and incubated for 20 to 40 minutes at 37° C. 20 μL of 10× mouse anti-IgE (10 μL/mL). Maximum degranulation occurred between 15 to 40 minutes after addition of anti-IgE.

Question: With COc1ccc(CCCOC(Cn2ccnc2)c2ccc(OC)cc2)cc1 (stereo not shown) [SKF96365, reference compound] as the compound, how does the IC50 read?
Answer: Its IC50 is over 20000 nM.
